Reference: EP0182135A2, “Novel bis-(substituted amino) anthraquinones” (AMERICAN CYANAMID COMPANY, priority 1984, dated 1986)
Several values for one entry are separate records, joined by “and”; a condition that tells them apart may be missing. Identical values can stand only once. Counter-ions that a name gives are not always drawn.

Columns and labels:
[1] = test system: melanotic melanoma B16; assay: Melanotic Melanoma B16 Test; format: in vivo, C57BC/6 mice
Experimental: The animals used were C57BC/6 mice, all of the same sex, weighing a minimum of 17 g and all within a 3 g weight range. There were normally 10 animals per test group. A 1.0 g portion of melanotic melanoma B16 tumor was homogenized in 10 ml of cold balanced salt solution and a 0.5 ml aliquot of the homogenate was implanted intraperitoneally into each of the test mice. The test compounds were administered intraperitoneally on days one through nine (relative to tumor inoculation) at various doses. The animals were weighed and survivors recorded on a regular basis for 60 days. The median survival time and the ratio of survival time for treated (T)/control (C) animals were calculated. The positive control compound was 1,4-dihydroxy-5,8-bis[[2-(2-hydroxyethylamino)-ethyl]amino]anthraquinone, dihydrochloride (U.S. Patent 4,197,249) given at the indicated doses by injection.

[2] = test system: lymphocytic leukemia P388; assay: Lymphocytic Leukemia P388 Test; format: in vivo, DBA/2 mice
Experimental: Lymphocytic Leukemia P388 Test
The animals used were DBA/2 mice all of one sex, weighing a minimum of 17 g and all within a 3 g weight range. There were 5 or 6 animals per test group. The tumor transplant was by intraperitoneal injection of 0.1 ml of dilute ascitic fluid containing 10^6 cells of lymphocytic leukemia P388. The test compounds were administered intraperitoneally on days 1, 5 and 9 (relative to tumor inoculation) at various doses. The animals were weighed and survivors were recorded on a regular basis for 30 days. The median survival time and the ratio of survival time for treated (T)/control (C) animals were calculated. The positive control compound was 1,4-dihydroxy-5,8-bis--[ [2-(2-hydroxyethylamino)ethyl ]amino]anthraquinone, dihydrochloride (U.S. Patent 4,197,249) given at the indicated doses by injection.

[3] = Dose 0.8 mg/kg intraperitoneally on days one through nine
[4] = Dose 3 mg/kg intraperitoneally on days one through nine
[5] = Dose 12 mg/kg intraperitoneally on days one through nine
[6] = Dose 3 mg/kg intraperitoneally on days 1, 5 and 9, dihydrochloride, 3 mg/kg
[7] = Dose 12 mg/kg intraperitoneally on days 1, 5 and 9, dihydrochloride, 12 mg/kg
[8] = Dose 50 mg/kg intraperitoneally on days 1, 5 and 9, dihydrochloride, 50 mg/kg
[9] = Dose 25 mg/kg intraperitoneally on days one through nine
[10] = Dose 100 mg/kg intraperitoneally on days one through nine
[11] = Dose 3 mg/kg intraperitoneally on days 1, 5 and 9, 3 mg/kg
[12] = Dose 12 mg/kg intraperitoneally on days 1, 5 and 9, 12 mg/kg
[13] = Dose 50 mg/kg intraperitoneally on days 1, 5 and 9, 50 mg/kg
[14] = Dose 200 mg/kg intraperitoneally on days 1, 5 and 9
[15] = Dose 0.05 mg/kg intraperitoneally on days one through nine
[16] = Dose 0.2 mg/kg intraperitoneally on days one through nine
[17] = Dose 0.025 mg/kg intraperitoneally on days 1, 5 and 9
[18] = Dose 0.1 mg/kg intraperitoneally on days 1, 5 and 9
[19] = Dose 0.4 mg/kg intraperitoneally on days 1, 5 and 9
[20] = Dose 1.6 mg/kg intraperitoneally on days 1, 5 and 9
[21] = Dose 6.4 mg/kg intraperitoneally on days 1, 5 and 9
[22] = Dose 0.025 mg/kg by injection, dihydrochloride, 0.025 mg/kg
[23] = Dose 0.1 mg/kg by injection, dihydrochloride, 0.1 mg/kg
[24] = Dose 0.4 mg/kg by injection, dihydrochloride, 0.4 mg/kg
[25] = Dose 1.6 mg/kg by injection, dihydrochloride, 1.6 mg/kg
[26] = Dose 0.025 mg/kg intraperitoneally on days 1, 5 and 9, dihydrochloride, 0.025 mg/kg
[27] = Dose 0.1 mg/kg intraperitoneally on days 1, 5 and 9, dihydrochloride, 0.1 mg/kg
[28] = Dose 0.4 mg/kg intraperitoneally on days 1, 5 and 9, dihydrochloride, 0.4 mg/kg
[29] = Dose 0.8 mg/kg intraperitoneally on days 1, 5 and 9
[30] = Dose 1.6 mg/kg intraperitoneally on days 1, 5 and 9, dihydrochloride, 1.6 mg/kg
[31] = Dose 50 mg/kg intraperitoneally on days one through nine
[32] = Dose 50 mg/kg intraperitoneally on days 1, 5 and 9
[33] = Dose 3 mg/kg intraperitoneally on days 1, 5 and 9
[34] = Dose 12 mg/kg intraperitoneally on days 1, 5 and 9

CN(C)CCCNC(=S)N(CCO)CCNc1ccc(NCCN(CCO)C(=S)NCCCN(C)C)c2c1C(=O)c1c(O)ccc(O)c1C2=O [N,N"-[(9,10-Dihydro-5,8-dihydroxy-9,10-dioxo-1,4-anthracenediyl)bis(imino-2,1-ethanediyl)]bis[N'-[3-(dimethylamino)propyl]-N-(2-hydroxyethyl)]thiourea, dihydrochloride]
Median Survival [1, 3]: 24.5 days
T/C x 100 (%) [1, 3]: 114%
Median Survival [1, 4]: 33.5 days
T/C x 100 (%) [1, 4]: 156%
Median Survival [1, 5]: >60 days
T/C x 100 (%) [1, 5]: >279%
Median Survival [2, 6]: 15 days
T/C x 100 (%) [2, 6]: 136%
Median Survival [2, 7]: 19.5 days
T/C x 100 (%) [2, 7]: 177%
Median Survival [2, 8]: 22.5 days
T/C x 100 (%) [2, 8]: 205%

CN(C)CCCNC(=S)N(CCO)CCNc1ccc(NCCN(CCO)C(=S)NCCCN(C)C)c2c1C(=O)c1c(O)ccc(O)c1C2=O [N,N"-[(9,10-Dihydro-5,8-dihydroxy-9,10-dioxo-1,4-anthracenediyl)bis(imino-2,1-ethanediyl)]bis[N'-[3-(dimethylamino)propyl]-N-(2-hydroxyethyl)]thiourea]
Median Survival [1, 9]: 27.5 days
T/C x 100 (%) [1, 9]: 146%
Median Survival [1, 10]: 42 days
T/C x 100 (%) [1, 10]: 222%
Median Survival [2, 11]: 13 days
T/C x 100 (%) [2, 11]: 124%
Median Survival [2, 12]: 13.5 days
T/C x 100 (%) [2, 12]: 129%
Median Survival [2, 13]: 19.5 days
T/C x 100 (%) [2, 13]: 186%
Median Survival [2, 14]: 23 days
T/C x 100 (%) [2, 14]: 219%

O=C1c2c(OC(=O)C(F)(F)F)ccc(OC(=O)C(F)(F)F)c2C(=O)c2c(N(CCN(CCOC(=O)C(F)(F)F)C(=O)C(F)(F)F)C(=O)C(F)(F)F)ccc(N(CCN(CCOC(=O)C(F)(F)F)C(=O)C(F)(F)F)C(=O)C(F)(F)F)c21 [N,N'-(5,8-Dihydroxy-l,4-anthraquinonylene)bis[2,2,2-trifluoro-N-[2,(2,2,2-trifluoro-N-2-hydroxyethyl-acetamido)ethyl]acetamide]tetrakis(trifluoroacetate) (tetraester)]
Median Survival [1, 15]: 27 days
T/C x 100 (%) [1, 15]: 132%
Median Survival [1, 16]: 27 days
T/C x 100 (%) [1, 16]: 132%
Median Survival [1, 3]: 34 days
T/C x 100 (%) [1, 3]: 166%
Median Survival [1, 4]: >52 days
T/C x 100 (%) [1, 4]: >254%
Median Survival [1, 5]: 42 days
T/C x 100 (%) [1, 5]: 205%
Median Survival [2, 17]: 13.5 days
T/C x 100 (%) [2, 17]: 117%
Median Survival [2, 18]: 16 days
T/C x 100 (%) [2, 18]: 139%
Median Survival [2, 19]: 15 days
T/C x 100 (%) [2, 19]: 130%
Median Survival [2, 20]: 19.5 days
T/C x 100 (%) [2, 20]: 170%
Median Survival [2, 21]: 26.5 days
T/C x 100 (%) [2, 21]: 230%

O=C1c2c(O)ccc(O)c2C(=O)c2c(NCCNCCO)ccc(NCCNCCO)c21 [Positive Control, 1,4-dihydroxy-5,8-bis--[ [2-(2-hydroxyethylamino)ethyl]amino]anthraquinone, dihydrochloride, reference compound]
Median Survival [1, 22]: 28 days and 26 days and 33 days and 28.5 days
T/C x 100 (%) [1, 22]: 137% and 161% and 133%
Median Survival [1, 23]: 36 days and 31.5 days and 39 days and 32 days and 42 days
T/C x 100 (%) [1, 23]: 176% and 166% and 190% and 133% and 195%
Median Survival [1, 16]: 32 days
T/C x 100 (%) [1, 16]: 158%
Median Survival [1, 24]: 36 days and >60 days and 58 days
T/C x 100 (%) [1, 24]: 178% and >293% and >317% and >250% and 270%
Median Survival [1, 3]: 35 days
T/C x 100 (%) [1, 3]: 173%
Median Survival [1, 25]: >60 days and 38 days and 37 days
T/C x 100 (%) [1, 25]: >293% and >297% and 200% and >250% and 172%
Median Survival [2, 26]: 17 days and 18 days and 16 days
T/C x 100 (%) [2, 26]: 170% and 171% and 145%
Median Survival [2, 27]: 25.5 days and 14.5 days and 16.5 days and 21.5 days
T/C x 100 (%) [2, 27]: 255% and 132% and 150% and 205% and 232%
Median Survival ([2]; Dose 0.2 mg/kg intraperitoneally on days 1, 5 and 9): 14.5 days
T/C x 100 (%) ([2]; Dose 0.2 mg/kg intraperitoneally on days 1, 5 and 9, dihydrochloride, 0.2 mg/kg): 153% and 126%
Median Survival [2, 28]: 19.5 days and 27 days and >30 days and 19 days and 26.5 days
T/C x 100 (%) [2, 28]: 205% and 169% and 270% and >273% and 173% and 252%
Median Survival [2, 29]: 18 days
T/C x 100 (%) ([2]; Dose 0.8 mg/kg intraperitoneally on days 1, 5 and 9, dihydrochloride, 0.8 mg/kg): 189% and 156%
Median Survival [2, 30]: >30 days and 19.5 days
T/C x 100 (%) [2, 30]: >316% and >261% and >300% and >273% and >286% and 177%
Median Survival ([2]; Dose 3.2 mg/kg by injection): >30 days
T/C x 100 (%) ([2]; Dose 3.2 mg/kg by injection, dihydrochloride, 3.2 mg/kg): >261% and >316%

CC(=O)C(=O)NCCNc1ccc(NCCNC(=O)C(C)=O)c2c1C(=O)c1c(O)ccc(O)c1C2=O [N,N'-[9,10-Dihydro-5,8-dihydroxy-9,10-dioxo-1,4-anthracenediyl)bis(imino-2,1-ethanediyl)]bis-[2-oxopropanamide]]
Median Survival [1, 9]: 43.5 days
T/C x 100 (%) [1, 9]: 182%
Median Survival [1, 31]: 41 days
T/C x 100 (%) [1, 31]: 171%
Median Survival [1, 10]: 38 days
T/C x 100 (%) [1, 10]: 158%
Median Survival [2, 32]: 13.5 days
T/C x 100 (%) [2, 32]: 123%
Median Survival [2, 14]: 16.5 days
T/C x 100 (%) [2, 14]: 150%

COC(=O)C(=O)NCCNc1ccc(NCCNC(=O)C(=O)OC)c2c1C(=O)c1c(O)ccc(O)c1C2=O [2,2[(9-10-Dihydro-5,8-dihydroxy-9,10-dioxo-1,4-anthracenediyl)bis(imino-2,1-ethanediylimino)]-bis[2-oxoacetic acid]dimethyl ester]
Median Survival [1, 3]: 23.5 days
T/C x 100 (%) [1, 3]: 155%
Median Survival [1, 4]: 26.5 days
T/C x 100 (%) [1, 4]: 129%
Median Survival [1, 5]: 31.5 days
T/C x 100 (%) [1, 5]: 154%
Median Survival [1, 31]: >60 days
T/C x 100 (%) [1, 31]: >293%
Median Survival [2, 33]: 16 days
T/C x 100 (%) [2, 33]: 145%
Median Survival [2, 34]: 19.5 days
T/C x 100 (%) [2, 34]: 177%
Median Survival [2, 32]: 20.5 days
T/C x 100 (%) [2, 32]: 186%
Median Survival [2, 14]: 23 days
T/C x 100 (%) [2, 14]: 209%

CC(=O)OCCN(CCNc1ccc(NCCN(CCOC(C)=O)C(C)=O)c2c1C(=O)c1c(O)ccc(O)c1C2=O)C(C)=O [N,N'-[5,8-Dihydroxyl,4-anthraquinonylene-bis(imino-ethylene)]bis[N-2-hydroxyethylacetamide-2,2'diacetate]]
Median Survival [1, 3]: 21.5 days
T/C x 100 (%) [1, 3]: 106%
Median Survival [1, 4]: 21.5 days
T/C x 100 (%) [1, 4]: 106%
Median Survival [1, 5]: 20.5 days
T/C x 100 (%) [1, 5]: 101%
Median Survival [1, 31]: 21.5 days
T/C x 100 (%) [1, 31]: 106%
Median Survival [2, 29]: 11 days
T/C x 100 (%) [2, 29]: 116%
Median Survival [2, 33]: 10 days
T/C x 100 (%) [2, 33]: 105%
Median Survival [2, 34]: 14 days
T/C x 100 (%) [2, 34]: 147%
Median Survival [2, 32]: 16 days
T/C x 100 (%) [2, 32]: 168%
Median Survival [2, 14]: 17 days
T/C x 100 (%) [2, 14]: 179%
